Source: patent US10150767B2, “Therapeutic compounds and uses thereof” (priority 2014, dated 2018)

Legend:
BRD4(BD1) = BRD4(BD1) (Homo sapiens (Human), UniProt O60885); experiment: BRD4 AlphaLisa binding assay; conditions: biotinylated H4-tetraacetyl peptide
Text: IC50 Measurements for Inhibitors Using BRD4 AlphaLisa Binding Assay

BRD9 = BRD9 (Homo sapiens (Human), UniProt Q9H8M2); experiment: BRD9 AlphaLisa binding assay; conditions: biotinylated H4-tetraacetyl peptide
Method: After 20 minutes incubation at room temperature AlphaLisa Streptavidin Acceptor Beads (Perkin-A[…]) and AlphaLisa Nickel donor beads (Perkin AS 10 ID) were added to a final concentration of 15 ug/mL each.

CECR2 = CECR2 (Homo sapiens (Human), UniProt Q9BXF3); experiment: CECR2 TR-FRET binding assay; conditions: biotinylated probe compound 1001, TR-FRET
Text: IC50 Measurements for Inhibitors Using CECR2 TR-FRET Binding Assay
His/Flag epitope tagged CECR2424-538 was cloned, expressed, and purified to homogeneity.

TAF1-BD2 = TAF1-BD2 (Homo sapiens, UniProt P21675); experiment: TAF1-BD2 TR-FRET binding assay; conditions: Assay: TAF-1; biotinylated probe compound 1000, TR-FRET
Method: Specifically, in a 384 well ProxiPlate TAF1-BD2 (6 nM final) was combined with biotin-ligand (50 nM final) in 50 mM HEPES (pH 7.5), 50 mM NaCl, 1 mM TCEP, 0.01% (w/v) BSA, and 0.008% (w/v) Brij-35 either in the presence of DMSO (final 0.2% DMSO) or compound dilution series in DMSO. After 10 minutes incubation at room temperature, a mixture Eu-W1024 Anti-6×His antibody (Perkin Elmer AD0110) and SureLight™ Allophycocyanin-Streptavidin (APC-SA, Perkin Elmer CR130-100) were added to a final concentrations of 0.2 nMolar antibody and 25 nMolar APC-SA, respectively. After twenty minutes of equilibration, the plates were read on an Envision instrument and IC50s calculated using a four parameter non-linear curve fit.

CECR2, sequence (Q9BXF3 424-538 limits assumed): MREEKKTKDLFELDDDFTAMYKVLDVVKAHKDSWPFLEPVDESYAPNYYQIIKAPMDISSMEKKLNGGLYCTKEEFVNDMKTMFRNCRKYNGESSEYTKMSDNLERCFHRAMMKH
BRD9, sequence (Q9H8M2 134-239 limits assumed): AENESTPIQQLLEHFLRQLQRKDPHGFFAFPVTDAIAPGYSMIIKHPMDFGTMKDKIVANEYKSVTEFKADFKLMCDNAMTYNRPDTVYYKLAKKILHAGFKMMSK

| Compound | IC50 (BRD4(BD1)) [nM] | other results |
| --- | --- | --- |
| Cn1cc(-c2ccccc2)c2cc[nH]c2c1=O [Example 1, 6-methyl-4-phenyl-1H-pyrrolo[2,3-c]pyridin-7(6H)-one] | 540 |  |
| Cn1cc(-c2ccc3c(c2)CC(=O)N3)c2cc[nH]c2c1=O [Example 2, 6-methyl-4-(2-oxoindolin-5-yl)-1H-pyrrolo[2,3-c]pyridin-7-one] | 210 |  |
| COCCNC(=O)c1ccc(-c2cn(C)c(=O)c3[nH]ccc23)cc1 [Example 3, N-(2-methoxyethyl)-4-(6-methyl-7-oxo-1H-pyrrolo[2,3-c]pyridin-4-yl)benzamide] |  | IC50 (BRD9): 24 nM |
| Cn1cc(-c2ccc3c(c2)CCCN3C(=O)OC(C)(C)C)c2cc[nH]c2c1=O [Example 4, tert-butyl 6-(6-methyl-7-oxo-1H-pyrrolo[2,3-c]pyridin-4-yl)-3,4-dihydro-2H-quinoline-1-carboxylate] | 110 |  |
| Cn1cc(-c2ccc3c(c2)N(C(=O)OC(C)(C)C)CCC3)c2cc[nH]c2c1=O [Example 5, tert-butyl 7-(6-methyl-7-oxo-1H-pyrrolo[2,3-c]pyridin-4-yl)-3,4-dihydro-2H-quinoline-1-carboxylate] |  | IC50 (BRD9): 130 nM |
| Cn1cc(-c2ccc(NC(=O)OC(C)(C)C)cc2)c2cc[nH]c2c1=O [Example 6, tert-butyl N-[4-(6-methyl-7-oxo-1H-pyrrolo[2,3-c]pyridin-4-yl)phenyl]carbamate] |  | IC50 (BRD9): 85 nM |
| COCCC(=O)Nc1ccc(-c2cn(C)c(=O)c3[nH]ccc23)cc1 [Example 7, 3-methoxy-N-[4-(6-methyl-7-oxo-1H-pyrrolo[2,3-c]pyridin-4-yl)phenyl]propanamide] |  | IC50 (CECR2): 170 nM |
| Cn1cc(-c2ccc3c(c2)N2C(=O)CCC2C(=O)N3)c2cc[nH]c2c1=O (stereo not shown) [Example 9, 8-(6-methyl-7-oxo-6,7-dihydro-1H-pyrrolo[2,3-c]pyridin-4-yl)-3,3a-dihydropyrrolo[1,2-a]quinoxaline-1,4(2H,5H)-dione] | 310 |  |
| CC1Nc2cc(-c3cn(C)c(=O)c4[nH]ccc34)ccc2NC1=O (stereo not shown) [Example 10, 3-methyl-6-(6-methyl-7-oxo-1H-pyrrolo[2,3-c]pyridin-4-yl)-3,4-dihydro-1H-quinoxalin-2-one] | 110 |  |
| CC1CNc2cc(-c3cn(C)c(=O)c4[nH]ccc34)ccc2NC1=O (stereo not shown) [Example 11, 3-methyl-7-(6-methyl-7-oxo-1H-pyrrolo[2,3-c]pyridin-4-yl)-1,3,4,5-tetrahydro-1,5-benzodiazepin-2-one] |  | IC50 (BRD9): 31 nM |
| Cn1cc(-c2ccc3c(c2)NCCC(=O)N3)c2cc[nH]c2c1=O [Example 12, 7-(6-methyl-7-oxo-1H-pyrrolo[2,3-c]pyridin-4-yl)-1,3,4,5-tetrahydro-1,5-benzodiazepin-2-one] |  | IC50 (BRD9): 25 nM |
| CC1CC(=O)Nc2ccc(-c3cn(C)c(=O)c4[nH]ccc34)cc2N1 (stereo not shown) [Example 13, 4-methyl-7-(6-methyl-7-oxo-1H-pyrrolo[2,3-c]pyridin-4-yl)-1,3,4,5-tetrahydro-1,5-benzodiazepin-2-one] | 170 |  |
| CC(C)c1nc2cc(-c3cn(C)c(=O)c4[nH]ccc34)ccc2[nH]c1=O [Example 14, 3-isopropyl-6-(6-methyl-7-oxo-1H-pyrrolo[2,3-c]pyridin-4-yl)-1H-quinoxalin-2-one] | 110 |  |
| Cn1cc(-c2ccc3c(c2)N2CCCC2CC(=O)N3)c2cc[nH]c2c1=O (stereo not shown) [Example 15, 2-(6-methyl-7-oxo-1H-pyrrolo[2,3-c]pyridin-4-yl)-5,7,7a,8,9,10-hexahydropyrrolo[2,1-d][1,5]benzodiazepin-6-one] | 81 |  |
| CC1Oc2cc(-c3cn(C)c(=O)c4[nH]ccc34)ccc2NC1=O (stereo not shown) [Example 16, 2-methyl-7-(6-methyl-7-oxo-1H-pyrrolo[2,3-c]pyridin-4-yl)-4H-1,4-benzoxazin-3-one] |  | IC50 (CECR2): 36 nM |
| Cn1cc(-c2ccc3c(c2)NC(c2cccs2)CC(=O)N3)c2cc[nH]c2c1=O (stereo not shown) [Example 17, 7-(6-methyl-7-oxo-1H-pyrrolo[2,3-c]pyridin-4-yl)-4-(2-thienyl)-1,3,4,5-tetrahydro-1,5-benzodiazepin-2-one] | 58 |  |
| CN(C)C(=O)c1ccc(-c2cn(C)c(=O)c3[nH]ccc23)cc1 [Example 18, N,N-dimethyl-4-(6-methyl-7-oxo-1H-pyrrolo[2,3-c]pyridin-4-yl)benzamide] |  | IC50 (CECR2): 730 nM |
| CCCn1cc(-c2cccc(C(=O)N(C)C)c2)c2cc[nH]c2c1=O [Example 19, N,N-dimethyl-3-(7-oxo-6-propyl-1H-pyrrolo[2,3-c]pyridin-4-yl)benzamide] |  | IC50 (BRD9): 238 nM |
| CCn1cc(-c2cccc(C(=O)N(C)C)c2)c2cc[nH]c2c1=O [Example 20, 3-(6-ethyl-7-oxo-1H-pyrrolo[2,3-c]pyridin-4-yl)-N,N-dimethyl-benzamide] |  | IC50 (CECR2): 1300 nM |
| Cn1cc(-c2cccc(C(N)=O)c2)c2cc[nH]c2c1=O [Example 21, 3-(6-methyl-7-oxo-1H-pyrrolo[2,3-c]pyridin-4-yl)benzamide] | 180 |  |

| Compound | IC50 (BRD4(BD1)) [nM] | other results |
| --- | --- | --- |
| Cn1cc(-c2cccc(C#N)c2)c2cc[nH]c2c1=O [Example 23, 3-(6-methyl-7-oxo-1H-pyrrolo[2,3-c]pyridin-4-yl)benzonitrile] | 150 |  |
| CNC(=O)c1cccc(-c2cn(C)c(=O)c3[nH]ccc23)c1 [Example 24, N-methyl-3-(6-methyl-7-oxo-1H-pyrrolo[2,3-c]pyridin-4-yl)benzamide] |  | IC50 (TAF1-BD2): 96 nM |
| Cn1cc(-c2ccc(CO)cc2)c2cc[nH]c2c1=O [Example 25, 4-[4-(hydroxymethyl)phenyl]-6-methyl-1H-pyrrolo[2,3-c]pyridin-7-one] | 710 |  |
| CN1CCN(C(=O)c2ccc(-c3cn(C)c(=O)c4[nH]ccc34)cc2)CC1=O [Example 26, 6-methyl-4-(4-(4-methyl-3-oxopiperazine-1-carbonyl)phenyl)-1H-pyrrolo[2,3-c]pyridin-7(6H)-one] |  | IC50 (CECR2): 240 nM |
| Cn1cc(-c2ccc(C(=O)N3CC(F)C3)cc2)c2cc[nH]c2c1=O [Example 27, 4-[4-(3-fluoroazetidine-1-carbonyl)phenyl]-6-methyl-1H-pyrrolo[2,3-c]pyridin-7-one] | 84 |  |
| Cn1cc(-c2ccc(C(=O)N3CC(F)(F)C3)cc2)c2cc[nH]c2c1=O [Example 28, 4-[4-(3,3-difluoroazetidine-1-carbonyl)phenyl]-6-methyl-1H-pyrrolo[2,3-c]pyridin-7-one] |  | IC50 (CECR2): 130 nM |
| Cn1cc(-c2ccc(C(=O)N3CCCC3)cc2)c2cc[nH]c2c1=O [Example 29, 6-methyl-4-[4-(pyrrolidine-1-carbonyl)phenyl]-1H-pyrrolo[2,3-c]pyridin-7-one] | 280 |  |
| CC1CCN(C(=O)c2ccc(-c3cn(C)c(=O)c4[nH]ccc34)cc2)CC1 [Example 31, 6-methyl-4-[4-(4-methylpiperidine-1-carbonyl)phenyl]-1H-pyrrolo[2,3-c]pyridin-7-one] | 170 |  |
| CC(=O)N1CCN(C(=O)c2ccc(-c3cn(C)c(=O)c4[nH]ccc34)cc2)CC1 [Example 32, 4-[4-(4-acetylpiperazine-1-carbonyl)phenyl]-6-methyl-1H-pyrrolo[2,3-c]pyridin-7-one] | 320 |  |
| Cn1cc(-c2ccc(C(=O)N3CCC(C(N)=O)CC3)cc2)c2cc[nH]c2c1=O [Example 33, 1-[4-(6-methyl-7-oxo-1H-pyrrolo[2,3-c]pyridin-4-yl)benzoyl]piperidine-4-carboxamide] | 260 |  |
| Cn1cc(-c2ccc(C(=O)Nc3cccnc3)cc2)c2cc[nH]c2c1=O [Example 34, 4-(6-methyl-7-oxo-1H-pyrrolo[2,3-c]pyridin-4-yl)-N-(3-pyridyl)benzamide] | 51 |  |
| Cn1cc(-c2ccc(C(=O)Nc3ccccc3)cc2)c2cc[nH]c2c1=O [Example 35, 4-(6-methyl-7-oxo-1H-pyrrolo[2,3-c]pyridin-4-yl)-N-phenyl-benzamide] |  | IC50 (CECR2): 75 nM |
| CN(C(=O)c1ccc(-c2cn(C)c(=O)c3[nH]ccc23)cc1)c1ccccc1 [Example 36, N-methyl-4-(6-methyl-7-oxo-1H-pyrrolo[2,3-c]pyridin-4-yl)-N-phenyl-benzamide] | 340 |  |
| CN(CC#N)C(=O)c1ccc(-c2cn(C)c(=O)c3[nH]ccc23)cc1 [Example 38, N-(cyanomethyl)-N-methyl-4-(6-methyl-7-oxo-1H-pyrrolo[2,3-c]pyridin-4-yl)benzamide] | 200 |  |
| Cn1cc(-c2ccc(C(C)(C)O)cc2)c2cc[nH]c2c1=O [Example 39, 4-[4-(1-hydroxy-1-methyl-ethyl)phenyl]-6-methyl-1H-pyrrolo[2,3-c]pyridin-7-one] |  | IC50 (BRD9): 21 nM |
| CC(C)(O)c1ccc(-c2cn(C3CC3)c(=O)c3[nH]ccc23)cc1 [Example 41, 6-cyclopropyl-4-(4-(2-hydroxypropan-2-yl)phenyl)-1H-pyrrolo[2,3-c]pyridin-7(6H)-one] |  | IC50 (BRD9): 110 nM |
| CN1CCC(c2ccc(-c3cn(C)c(=O)c4[nH]ccc34)cc2)CC1 [Example 42, 6-methyl-4-[4-(1-methyl-4-piperidyl)phenyl]-1H-pyrrolo[2,3-c]pyridin-7-one] |  | IC50 (BRD9): 53 nM |
| CN1CCc2cc(-c3cn(C)c(=O)c4[nH]ccc34)ccc2C1 [Example 44, 6-methyl-4-(2-methyl-3,4-dihydro-1H-isoquinolin-6-yl)-1H-pyrrolo[2,3-c]pyridin-7-one] |  | IC50 (CECR2): 54 nM |
| CN1CCC(Cc2ccc(-c3cn(C)c(=O)c4[nH]ccc34)cc2)CC1 [Example 45, 6-methyl-4-[4-[(1-methyl-4-piperidyl)methyl]phenyl]-1H-pyrrolo[2,3-c]pyridin-7-one] |  | IC50 (BRD9): 64 nM |
| Cc1cc2c(-c3cccc(C(=O)N(C)C)c3)cn(C)c(=O)c2[nH]1 [Example 47, 3-(2,6-dimethyl-7-oxo-1H-pyrrolo[2,3-c]pyridin-4-yl)-N,N-dimethyl-benzamide] |  | IC50 (CECR2): 130 nM |
